Data reported in patent US6965013B2, “Intermedin and its uses” (The Board of Trustees of the Leland Stanford Junior …, priority 2002, dated 2005).
Ends that are not written are not given here.

Assays:
[1] = test system: spontaneously hypertensive rats (SHR); experiment: Blood pressure in spontaneously hypertensive rats (tail-cuff); assay type: in vivo, rat; settings: male SHR, FIG. 6D; for blockage of the hypotensive effects of IMDL: cotreatment with IMDL
Experimental: (§1) Effects of intermedin on blood pressure and heart rate in normal and hypertensive rats. Blood pressure measurements in conscious male Sprague-Dawley rats and spontaneously hypertensive rats (SHR)(7-9 weeks of age) were made in animals preadapted to the measurement procedure. Indirect systolic pressure was determined by a programmable NIBP system using the tail-cuff method (Columbus Instruments, Columbus, Ohio). Following attachment of the pressure transducer, rats were left undisturbed for 10 min before baseline measurements that spanned a 15-min interval. Following baseline measurements, rats were injected intraperitoneally with varying doses of hormones. Blood pressure and heart rate were monitored for 40 min at 20-sec intervals. Changes in blood pressure were calculated as the average of thirty measurements performed within each 10-min interval.

[2] = target: T1, endogenous calcitonin receptor (Homo sapiens, UniProt P30988); experiment: cAMP production in 293T cells via the endogenous calcitonin receptor; assay type: cell-based; settings: FIG. 3A
T1 construct: through the endogenous calcitonin receptor; endogenous in cells; host or cells: HEK293T
T1 sequence (P30988 25-474): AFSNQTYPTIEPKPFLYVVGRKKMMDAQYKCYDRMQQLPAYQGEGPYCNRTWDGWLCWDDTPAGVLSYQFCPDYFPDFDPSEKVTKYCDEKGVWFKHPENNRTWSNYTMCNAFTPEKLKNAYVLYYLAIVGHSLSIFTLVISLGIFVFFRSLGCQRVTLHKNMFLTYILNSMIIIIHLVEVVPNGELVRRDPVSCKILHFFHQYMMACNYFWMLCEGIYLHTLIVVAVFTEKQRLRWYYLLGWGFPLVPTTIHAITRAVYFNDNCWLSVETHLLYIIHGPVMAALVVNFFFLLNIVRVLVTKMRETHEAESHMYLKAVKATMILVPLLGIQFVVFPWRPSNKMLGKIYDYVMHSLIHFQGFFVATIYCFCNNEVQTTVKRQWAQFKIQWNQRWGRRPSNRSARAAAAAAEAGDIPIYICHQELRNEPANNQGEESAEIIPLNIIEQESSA

[3] = target: T2, L6 skeletal myoblast cells expressing endogenous CRLR (CGRP receptor) (Rattus norvegicus, UniProt Q63118+Q9JJ74); experiment: Stimulation of cAMP production in L6 cells; assay type: cell-based; settings: for cAMP production: 30 min treatment, 2.5 mM IBMX, FIG. 2B
T2 construct: expressing endogenous CRLR; host or cells: L6 rat skeletal myoblast cells
T2 sequence (Q63118 24-464): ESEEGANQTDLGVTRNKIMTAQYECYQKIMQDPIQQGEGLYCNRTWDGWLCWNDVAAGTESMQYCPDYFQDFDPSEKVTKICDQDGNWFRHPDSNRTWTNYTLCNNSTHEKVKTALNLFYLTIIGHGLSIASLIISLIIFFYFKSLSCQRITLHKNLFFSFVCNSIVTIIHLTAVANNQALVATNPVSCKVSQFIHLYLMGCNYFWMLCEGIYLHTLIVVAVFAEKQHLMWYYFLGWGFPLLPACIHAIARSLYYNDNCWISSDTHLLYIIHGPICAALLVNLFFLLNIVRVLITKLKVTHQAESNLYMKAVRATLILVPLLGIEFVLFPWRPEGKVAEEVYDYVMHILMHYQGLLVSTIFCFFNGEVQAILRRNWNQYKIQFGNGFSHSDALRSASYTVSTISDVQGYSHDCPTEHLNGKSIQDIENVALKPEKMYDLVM
T2 sequence (Q9JJ74 27-148 partner): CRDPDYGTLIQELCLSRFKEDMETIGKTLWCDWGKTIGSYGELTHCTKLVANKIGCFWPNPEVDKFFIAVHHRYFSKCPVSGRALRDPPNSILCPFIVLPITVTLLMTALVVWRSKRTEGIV
Experimental: (§2) Human neuroblastoma SK-N-MC and rat L6 skeletal myoblast cells expressing endogenous CRLR were obtained from American Type Culture Collection. To estimate adenylyl cyclase activation, SK-N-MC and L6 cells (2×10^5 viable cells/well) were plated in 24-well culture dishes in DMEM/F12 medium one day before treatment. Following 2 h incubation in serum-free DMEM/F12 medium, cells were treated with testing reagents for 30 min in medium containing 0.1% BSA and 2.5 mM 3-isobutyl-1-methylxanthine (IBMX, Sigma-Aldrich Corp.) to prevent hydrolysis of cAMP by phosphodiesterases. Following treatment, cells were lysed and cAMP content determined by a specific radioimmunoassay.

[4] = test system: male Sprague-Dawley rats; experiment: Blood pressure and heart rate in normal rats (tail-cuff); assay type: in vivo, rat; settings: for blockage of the hypotensive effect of IMDL: male Sprague-Dawley rats, cotreatment with IMDL, CGRP8-37 in 20-fold excess, FIG. 6C; for heart rate / systolic blood pressure: conscious male Sprague-Dawley rats, intraperitoneal; for heart rate: FIG. 6B; for systolic blood pressure: monitored 40 min, FIGS. 6A, 6C
Experimental: as §1

[5] = test system: C57/BL6 male mice; experiment: Gastric emptying activity in mice; assay type: in vivo, mouse; settings: intraperitoneal 100 nM/Kg, 90 min after hormone treatment, FIG. 8
Experimental: Effects of intermedin on gastric emptying activity. Eight-week-old C57/BL6 male mice deprived of food for 20 h were given food pellets for 90 min before intraperitoneal injection with different hormones or saline. After treatment, mice were deprived of food again and killed 90 min later. The stomach was excised at the pylorus and cardia before weighing. Gastric emptying was calculated by comparing the stomach weight of treated mice to the stomach weight of control mice killed at the time of hormone injection.

[6] = target: T3, CGRP receptor (CRLR) on intact L6 cells (Rattus norvegicus, UniProt Q63118+Q9JJ74); experiment: Receptor-binding assay, displacement of 125I-CGRP from L6 cells; settings: 37C, 2 h, FIG. 2F
T3 construct: expressing endogenous CRLR; host or cells: L6 rat skeletal myoblast cells
T3 sequence (Q63118 24-464): as the sequence (Q63118 24-464) above
T3 sequence (Q9JJ74 27-148 partner): as the sequence (Q9JJ74 27-148 partner) above
Experimental: Receptor-binding assay. Ligand-binding assays were done in siliconized microfuge tubes at 37C for 2 h. […] After a 2 h incubation at 37C, the cell-associated ligand was estimated. Radioactivity was determined using a γ-counter (EG&G Wallace, Gaithersburg, Md.).

[7] = test system: C57/BL6 male mice; experiment: Cumulative food intake in fasted mice; assay type: in vivo, mouse; settings: mice fasted 20 h, intraperitoneal 100 nM/Kg, 1, 2 and 4 h after treatment, FIG. 7
Experimental: Analysis of ingestive behavior. Eight-week-old C57/BL6 male mice were housed individually in a regulated environment. Before intraperitoneal injection with testing reagents, mice were deprived of food for 20 h with free access to water. Food intake was measured by placing preweighed pellets in the cage and weighing uneaten pellets at 1, 2, and 4 h after treatment.

[8] = humans, administration of ADM, earlier studies; cited from earlier work
[9] = target: T4, SK-N-MC cells expressing endogenous CRLR (CGRP receptor) (Homo sapiens, UniProt O60894+Q16602); experiment: Stimulation of cAMP production in SK-N-MC cells; assay type: cell-based; settings: 30 min treatment, 2.5 mM IBMX, FIG. 2A
T4 construct: expressing endogenous CRLR; host or cells: SK-N-MC human neuroblastoma cells
T4 sequence (Q16602 23-461): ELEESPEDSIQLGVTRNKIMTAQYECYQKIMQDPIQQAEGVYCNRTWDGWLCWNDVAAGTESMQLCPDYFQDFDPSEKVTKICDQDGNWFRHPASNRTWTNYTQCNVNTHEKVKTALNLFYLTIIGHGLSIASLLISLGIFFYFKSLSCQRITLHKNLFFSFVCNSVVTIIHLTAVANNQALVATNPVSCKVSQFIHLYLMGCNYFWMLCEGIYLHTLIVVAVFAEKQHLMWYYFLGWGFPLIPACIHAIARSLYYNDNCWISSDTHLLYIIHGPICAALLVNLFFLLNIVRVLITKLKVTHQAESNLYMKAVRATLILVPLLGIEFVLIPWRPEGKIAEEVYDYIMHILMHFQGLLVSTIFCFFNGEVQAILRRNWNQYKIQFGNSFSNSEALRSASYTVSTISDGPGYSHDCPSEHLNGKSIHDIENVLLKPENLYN
T4 sequence (O60894 27-148 partner): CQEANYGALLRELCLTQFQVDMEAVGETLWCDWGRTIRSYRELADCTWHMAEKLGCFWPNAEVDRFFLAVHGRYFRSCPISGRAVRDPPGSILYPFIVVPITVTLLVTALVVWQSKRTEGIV
Experimental: as §2

| Substance | cAMP production [3] | gastric emptying activity [5] | heart rate [4] | systolic blood pressure [4] | cumulative food intake [7] | also measured |
| --- | --- | --- | --- | --- | --- | --- |
| ADM22-52: low affinity ADM22-52 fragment (TVQKLAHQIYQFTDKDKDNVAPRSKISPQGY; ends and bridges not checked; UniProt P35318 116-146, looked up, fragment) | – | – | – | – | – | blockage of the hypotensive effects of IMDL [1]: minimal effect |
| calcitonin | – | – | – | – | – | cAMP production [2]: increases cAMP dose-dependently |
| nonamidated form of intermedin: nonamidated form of the synthetic intermedin peptide | no effect | – | – | – | – | – |
| CGRP8-37: N-terminally truncated CGRP, a CGRP receptor antagonist (VTHRLAGLLSRSGGVVKNNFVPTNVGSKAF; ends and bridges not checked; UniProt P06881 90-119, looked up, fragment) [reference compound] | – | – | – | – | – | blockage of the hypotensive effect of IMDL [4]: significantly decreased the hypotensive effects of IMDL; blockage of the hypotensive effects of IMDL [1]: abolished |
| IMDS: 40-amino-acid amidated mature human intermedin peptide, SEQ ID NO:5 residues 8-47 | dose-dependent increases of cAMP production | Reduction of gastric emptying | increased heart rate | dose-dependently suppressed blood pressure | decreased food intake | competitive displacement of 125I-CGRP binding [6]: displaced ^125I-CGRP binding |
| adrenomedullin [ADM, reference compound] | stimulated cAMP production | suppressed the gastric emptying activity, but with a lower potency | Increase in heart rate | dose-dependently suppressed systolic blood pressure | decreased food intake | circulating prolactin levels [8]: increases circulating prolactin levels |
| SRP/urocortin II: type II CRH receptor-selective agonist, known gastric emptying suppression peptide (IVLSLDVPIGLLQILLEQARARAAREQATTNARILARVGHC; Urocortin-2; UniProt Q96RP3 72-112, looked up) [reference compound] | – | Reduction of gastric emptying | – | – | decreased food intake | – |
| prointermedin55-85: 31-amino-acid peptide from the prepro-region of human intermedin (PRPVVWKLHRALQAQRGAGLAPVMGQPLRDG; pro-form; UniProt Q7Z4H4 55-85, looked up, fragment) | no effect | – | – | no effect | – | cAMP production [9]: no effect |
| IMD17-47: truncated amidated intermedin fragment, putative C-terminal receptor-binding domain (VQNLSHRLWQLMGPAGRQDSAPVDPSSPHSY-NH2) | no effect | – | – | no effect | – | blockage of the stimulatory effect of intermedin on cAMP production ([3]; cotreatment with intermedin, IMD17-47 at 1 μM, FIGS. 2C, 2D): functional antagonist of intermedin action; blockage of the hypotensive effect of IMDL [4]: blocked the hypotensive effects of IMDL; cAMP production [9]: no effect |
| IMDL: 47-amino-acid amidated mature human intermedin peptide, SEQ ID NO:5 residues 1-47 | dose-dependent increases of cAMP production | Reduction of gastric emptying | increased heart rate | dose-dependently suppressed blood pressure | decreased food intake | competitive displacement of 125I-CGRP binding [6]: displaced ^125I-CGRP binding; blood pressure ([1]; intraperitoneal): reduced blood pressure |
